From patent publication US8394367B2, “IL6R/IL6 chimera for therapy of chemotherapy-induced peripheral neuropathy” (Yeda Research and Development Co., Ltd., priority 2004, dated 2013)
“Also recorded” adds a separate entry of the source.

Assays:
[1] = test system: activated caspase-3 in DRG cultures; assay: Caspase-3 activation (apoptosis) in DRG cultures treated with vincristine; format: cell-based, mouse; conditions: 10 nM vincristine for 5 days
Method: (§1) IL-6R/IL-6 chimera (Chebath et al, 1997) was used to explore prevention against vincristine intoxication in vitro. For this purpose, cultures of dorsal root ganglia (DRG) from mouse embryos (day E17) in which neuronal outgrowth was stimulated by Nerve Growth Factor (NGF), were subsequently exposed to 10 nM vincristine which induces a progressive axonal degeneration process (Wang et al., J Neuropathol Exp Neurol. 2000 July; 59(7):599-606). […] Neurodegeneration was further examined by monitoring the proteolytic activation of caspase-3, which denotes the early stages of apoptosis in various neuropathies (Russell et al, Neurobiol Dis. 1999 October; 6(5):347-63).
(§2) DRGs were prepared as detailed before (Haggiag et al, 1999, 2001) from embryos of (C57BL/6×129Sv) F1 mice. In some experiments, corresponding IL-6−/− mutant mice were used (Mendel et al, 1998). The DRGs were seeded onto glass coverslips (precoated with a solution of 20 μg/ml poly-D-lysine, 250 μg/ml fibronectin), which were placed in 12-well Costar plates. The regular culture medium was 0.5 ml DMEM/F12 medium with 1% N2 supplement, 10% fetal bovine serum, 2% horse serum, 1.4 mM glutamine (all from Gibco/Invitrogen) and 50 ng/ml NGF (2.5S; Alomone Labs, Jerusalem, Israel). Cultures were maintained at 37° C., 5% CO2 and medium replaced every third day. […]

[2] = test system: dorsal root ganglia (DRG) cultures; assay: Protection of the axonal network in DRG cultures intoxicated by vincristine (βIII-tubulin immunostaining); format: cell-based, mouse; conditions: 10 nM vincristine for 2 days; βIII-tubulin staining
Method: as §1, §2

[3] = test system: dorsal root ganglia (DRG) cultures; assay: Regeneration of DRG cultures after vincristine removal (βIII-tubulin and GFAP immunostaining); format: cell-based, mouse; conditions: 5 nM vincristine day 5 to 10, 6 more days without drug; IL-6-/- DRG
Source text: I further investigated whether the IL-6R/IL-6 could have neural regenerative effects by adding IL-6R/IL-6 after the action of vincristine had taken place. Cultures in which the axonal network was formed in the presence of NGF for 5 days were either continued for another 11 days without or with IL-6R/IL-6 (Panel A and B, respectively), or treated for 5 days by vincristine at which time vincristine was removed and culture continued for 6 more days (panels C-F). […] These experiments indicate that IL-6R/IL-6 chimera promotes regeneration of neural and glial cells when added after exposure to the chemotherapeutic agent.
as §2

[4] = test system: peripheral neuropathy caused by carboplatin/paclitaxel; conditions: at the doses and regime tested; cited from earlier work

Compound | Caspase-3 activation caused by vincristine [1] | Loss of axons in DRG outgrowth caused by vincristine [2] | Degeneration of the axonal network 6 days after vincristine removal [3] | Prevention of CIPN in clinical trials [4]
CC[C@]1(O)C[C@H]2CN(CCc3c([nH]c4ccccc34)[C@@](C(=O)OC)(c3cc4c(cc3OC)N(C=O)[C@H]3[C@@](O)(C(=O)OC)[C@H](OC(C)=O)[C@]5(CC)C=CCN6CC[C@]43[C@@H]65)C2)C1 [vincristine] | Positive reaction to antibodies against activated caspase-3 | considerable loss of axons; also recorded: extensive neurodegeneration | extensive degeneration of the axonal network was still observed; also recorded: extensive degeneration of the axonal network was still present | 
LIF: recombinant leukemia inhibitor factor (LIF), another gp130 activator |  |  |  | ineffective
